Values quoted from earlier work in patent publication US9433602B2, “Combination and composition for treating obesity” (LABORATORIOS SENOSIAIN S.A. DE C.V., priority 2010, dated 2016).
Several values for one entry are separate records, joined by “and”; a condition that tells them apart may be missing. Identical values can stand only once.

Assays:
[1] = not given; remark: listed apart in the source
[2] = test system: gastric and pancreatic lipases; details: pharmacological effect of the drug
[3] = humans, taken orally

| SMILES | Solubility in alcohol and methanol (alcohol and methanol) | Solubility in hydrochloric acid 10% (hydrochloric acid 10%) | Solubility in water | Solubility in chloroform (chloroform) | Plasma concentrations of intact orlistat ([1]; after single administration of 360 mg, normal weight and obese subjects) | Plasma concentrations in general ([1]; in general, no evidence of accumulation) | Share of the fecally excreted dose that was unchanged orlistat ([1]; of the dose excreted in feces) | Administered dose excreted in feces ([1]; people with normal weight or obese) | Decrease of the absorption of ingested fat [2] | Bioavailability [3] | Half-life [3] |
| --- | --- | --- | --- | --- | --- | --- | --- | --- | --- | --- | --- |
| Oc1ccc(C=Cc2cc(O)cc(O)c2)cc1 [Resveratrol, 3,5,4′-trihydroxystilbene] | soluble in alcohol and methanol | insoluble in hydrochloric acid 10% | insoluble in water | – | – | – | – | – | – | – | – |
| CCCCCCCCCCC[C@@H](C[C@@H]1OC(=O)[C@H]1CCCCCC)OC(=O)[C@H](CC(C)C)NC=O [orlistat] | – | – | insoluble in water | easily soluble in chloroform | < 5 ng/mL | < 10 ng/ml and < 0.02 μM | 83% | Approximately 97% | 30% | – | – |
| Oc1ccc(/C=C/c2cc(O)cc(O)c2)cc1 [trans-resveratrol] | – | – | – | – | – | – | – | – | – | relatively low | approximately 8 h |
